Laboratory results reported in patent US10273279B2, “Protease activated receptor-1 (PAR1) derived cytoprotective polypeptides and related methods” (THE SCRIPPS RESEARCH INSTITUTE, priority 2011, dated 2019).
Where no end group is shown, it is not given here.

Experiments:
[1] = system: glycogen synthase kinase 3β (GSK3β) phosphorylation at Ser9; assay: GSK3β Ser9 phosphorylation in endothelial cells; type: cell-based, human
Protocol: To further confirm activation of Akt by the TR47-66 peptide, Akt-mediated inactivation of glycogen synthase kinase 3β (GSK3β) via phosphorylation at Ser9 was determined. GSK3β is a well-known downstream substrate for Akt.

[2] = system: EA.hy.926 endothelial cells; assay: Staurosporine-induced endothelial cell apoptosis (Apopercentage dye); type: cell-based, human; conditions: 4 hrs pretreatment; 50 μM NPND, 50 μM scr-NPND or 10 μM TFLL; staurosporine 10 μM
Protocol: Activated Protein C (APC) conveys anti-apoptotic activity to EA.hy.926 cells that requires functional PAR1 receptor and APC binding to the endothelial protein C receptor (EPCR). See, e.g., Mosnier at al., Biochem J. 2003; 373:65-70; and Mosnier at al., Blood. 2007; 109:3161-3172.
Methods: EA.hy.926 cells (ATCC: CRL-2922) were grown in 24 well plates in DMEM (Invitrogen #12430) supplemented with glutamax (Invitrogen #35050) and 10% FBS (Hyclone #35-011-CV) in a 37° C. cell incubator with a humidified atmosphere and 5% CO2 in air until confluency. Cells were treated for 4 hrs with vehicle control, 50 μM NPND, 50 μM scr-NPND or 10 μM TFLL after which staurosporine (10 μM) and the Apopercentage dye (Biocolor) were added according the manufacturer's instructions. After 1 hr cells were washed with 2×1 ml PBS and 110 μl of the dye release agent was added to the cells. Subsequently 100 μl aliquots were transferred to a black 96 well plate and fluorescence was measured (530 nm excitation/580 nm emission). Apoptosis was expressed as a percentage of cells treated with 10 mM H2O2 for which apoptosis was set at 100%.

[3] = system: ERK1/2 phosphorylation at Thr202/204 in EA.hy.926 human endothelial cells; assay: ERK1/2 phosphorylation in EA.hy.926 endothelial cells (in-cell Western); type: cell-based
Excerpt: (§1) Activated Protein C (APC) cleaves a synthetic PAR1 tail peptide at Arg^41 and Arg^46; furthermore, APC cleaves SEAP-PAR1 mutants with the mutations R41A or R41Q but not SEAP-PAR1 with both R41Q/R46Q mutations. […] It was thus hypothesized that a new PAR1 N-terminus beginning at residue Asn-47 promotes PAR1 signaling and APC cytoprotective activities. Since phosphorylation of signaling network components is useful for monitoring activation of signaling pathways, the effects of synthetic PAR1 peptides on Akt and ERK1/2 phosphorylation in EA.hy.926 human endothelial cells were studied. Cells were treated for 0, 5 or 30 min with peptides prior to cell fixation, permeabilization of cells and subsequent immunoblotting analysis (“in-cell Western blotting”). Relative phosphorylation of Akt at Ser^473 (pSer^473-Akt) or of ERK1/2 at Thr202/204 (pERK1/2) in endothelial cells was quantified using the LI-COR Odyssey infrared (IR) fluorescence imaging system which permits “in cell” Western blots. The Odyssey permits simultaneous quantification of different antibodies that yield either red or green signals.
(§2) Methods: EA.hy.926 cells (ATCC: CRL-2922) were grown in black clear bottom 96 well plates (Nunc) in DMEM (Invitrogen #12430) supplemented with glutamax (Invitrogen #35050) and 10% FBS (Hyclone #35-011-CV) in a 37° C. cell incubator with a humidified atmosphere and 5% CO2 in air until confluency. Cells were treated for 0, 5 or 30 min with PAR1 peptides TFLL (50 μM), NPND (250 μM) or scr-NPND (250 μM) or with vehicle in serum free media. Subsequently cells were fixed with methanol free 4% para-formaldehyde (Pierce), washed with phosphate buffered saline (PBS; Invitrogen) containing 1% triton X-100 and blocked with Odyssey blocking buffer (Licor). Cells were incubated with rabbit anti-pT202/Y204 ERK1/2 (1/1000; Cell signaling D13.14.4E) or rabbit anti-pSer^473 (1/100; cell signaling D9E) with Odyssey blocking buffer. After washing with PBS/0.1% Tween (1/800), IRDye 800CW-labelled secondary goat anti-rabbit antibodies (Licor) were added to the cells in Odyssey blocking buffer and 1/10,000 Draq5 (Biostatus) for cell normalization. After final washing with PBS/0.1% Tween IR, the fluorescence of bound antibodies was determined using the Odyssey (Licor). Background fluorescence was determined by omitting the primary antibody and subtracting values for controls from all other observed values.

[4] = system: Akt phosphorylation at Ser473 in EA.hy.926 human endothelial cells; assay: Akt Ser473 phosphorylation in EA.hy.926 endothelial cells (in-cell Western); type: cell-based
Excerpt: as §1, §2

SEAP-PAR1 = SEAP-PAR1 cleavage reporter on transfected HEK-293 cells (SEAP release); type: cell-based, human; conditions: independent of EPCR
Excerpt: To facilitate analysis of APC-mediated PAR-1 activation, we created a full-length PAR-1 construct linked at the N-terminus to an alkaline phosphatase reporter group (SEAP). Selection of stable cell lines expressing both endothelial protein C receptor (EPCR) (wt or E86A) and SEAP-PAR1 allowed for a reliable and reproducible analysis of EPCR-dependent PAR-1 activation by APC. Mass-spec analysis of cleavage fragments generated by APC of a synthetic PAR-1 N-terminal tail peptide (TR33-62) identified both Arg^41 and Arg^46 as potential cleavage sites for APC proteolysis, as noted above. […] R41Q-SEAP-PAR1 was cleaved by APC in the presence of EPCR. This surprising result was also obtained for R41A-SEAP PAR1.
2009; 113:5970-5978. SEAP-PAR1, either in the presence or absence of wt-EPCR, were transfected into HEK-293 cells to obtain stable cells expressing SEAP-PAR1 or wt-EPCR/SEAP-PAR1. Mutations in SEAP-PAR1 were introduced using the Quickchange method (Agilent). Cells were grown in 96-wells plates to confluency in Dulbeco's modified Eagle media (DMEM): Ham's F-12 (Invitrogen) supplemented with penicillin-streptomycin-glutamine (PSG) (Gibco) and 10% fetal bovine serum (Omega) in a humidified atmosphere at 37° C. and 5% CO2 Cells were washed with Hank's balanced salt solution (HBSS; Invitrogen) supplemented with 1.3 mM CaCl2, 0.6 mM MgCl2 and 0.1% endotoxin free BSA (Calbiochem) and incubated with APC. After 60 min, SEAP release was determined using 1-step PNPP (Pierce). Values were corrected for background activity derived from the same cells incubated in the absence of APC and expressed as a percentage of total SEAP available on the cell membrane.

[5] = 0, 5 or 30 min, TFLL 50 μM, NPND 250 μM, scr-NPND 250 μM

CC(C)c1ccc(Cn2ccc3c4c(N)nc(NC5CC5)nc4ccc32)cc1 [SCH79797]
effect on TR47-66-induced Ser9-GSK3β phosphorylation ([1]; PAR1 antagonist added to TR47-66): inhibited

TFLLRNPNDK (not fully specified) [reference compound]
inhibition of staurosporine-induced endothelial cell apoptosis [2]: did not convey detectable anti-apoptotic effects | phosphorylation of GSK3β at Ser9 ([1]; Example 7): did not result in Ser9-GSK3β phosphorylation | ERK1/2 phosphorylation (pERK1/2) [3, 5]: quickly but transiently stimulated | activation of ERK1/2 ([3]; Example 7): did so | pSer473-Akt (Akt phosphorylation) [4, 5]: essentially no effect | Ser473-Akt phosphorylation (activation of Akt) ([4]; Example 7, under the employed experimental conditions): neither thrombin nor TRAP induced

elastase [reference compound]
cleavage of all PAR1 constructs on cells (SEAP-PAR1): cleaved all PAR1 constructs on cells with similar efficacy
